# Source: publication PMC7827406, “Structure–Activity Relationship (SAR) Study of Spautin-1 to Entail the Discovery of Novel NEK4 Inhibitors” (International Journal of Molecular Sciences, 2021)
# Where two headings read alike, the source gives them in different places.
# What was measured:
# Test in all cases: biochemical
# Parameters in all cases: Eurofins KinaseProfiler full panel at Km ATP, residual kinase activity (%) relative to DMSO
# MKK6(h) = biological target: T1, MKK6(h) (Homo sapiens, UniProt P52564)
# T1 construct: gene MAP2K6
# T1 sequence (P52564 1-334): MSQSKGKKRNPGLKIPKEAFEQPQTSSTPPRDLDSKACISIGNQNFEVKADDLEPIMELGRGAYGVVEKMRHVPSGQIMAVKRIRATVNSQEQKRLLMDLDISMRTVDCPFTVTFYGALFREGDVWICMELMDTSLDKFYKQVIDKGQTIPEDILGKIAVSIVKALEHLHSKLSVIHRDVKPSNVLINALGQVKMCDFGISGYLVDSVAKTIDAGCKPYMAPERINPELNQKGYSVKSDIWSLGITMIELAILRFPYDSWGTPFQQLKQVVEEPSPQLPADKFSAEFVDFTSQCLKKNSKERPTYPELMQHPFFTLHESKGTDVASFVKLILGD
# How it was run: (§1)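 Two 10 µM single-concentration screens were run: a competition-binding screen, in which DNA-tagged kinase bound to immobilized ligands was quantified by qPCR, and a radiometric activity panel at Km ATP. Each is expressed as residual kinase activity (%).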
# TSSK2(h) = biological target: T2, TSSK2(h) (Homo sapiens, UniProt Q96PF2)
# T2 sequence (Q96PF2 1-358): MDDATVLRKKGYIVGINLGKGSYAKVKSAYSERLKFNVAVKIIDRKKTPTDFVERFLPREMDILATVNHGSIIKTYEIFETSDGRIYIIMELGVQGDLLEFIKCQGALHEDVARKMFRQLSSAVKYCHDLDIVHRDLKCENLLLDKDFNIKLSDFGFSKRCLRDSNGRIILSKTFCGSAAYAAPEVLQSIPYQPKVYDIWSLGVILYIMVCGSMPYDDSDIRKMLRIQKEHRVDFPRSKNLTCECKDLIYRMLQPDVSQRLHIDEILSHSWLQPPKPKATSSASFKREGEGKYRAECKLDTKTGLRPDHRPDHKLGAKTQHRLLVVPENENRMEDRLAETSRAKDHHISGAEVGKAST
# How it was run: as §1
# HIPK1(h) = HIPK1(h) (Homo sapiens, UniProt Q86Z02)
# How it was run: as §1
# STK25(h) = STK25(h) (Homo sapiens, UniProt O00506)
# How it was run: as §1
# CDK3/cyclinE(h) = CDK3/cyclinE(h) (Homo sapiens, UniProt Q00526)
# How it was run: as §1
# ALK4(h) = biological target: T3, ALK4(h) (Homo sapiens, UniProt P36896)
# T3 construct: gene ACVR1B
# T3 sequence (P36896 1-505): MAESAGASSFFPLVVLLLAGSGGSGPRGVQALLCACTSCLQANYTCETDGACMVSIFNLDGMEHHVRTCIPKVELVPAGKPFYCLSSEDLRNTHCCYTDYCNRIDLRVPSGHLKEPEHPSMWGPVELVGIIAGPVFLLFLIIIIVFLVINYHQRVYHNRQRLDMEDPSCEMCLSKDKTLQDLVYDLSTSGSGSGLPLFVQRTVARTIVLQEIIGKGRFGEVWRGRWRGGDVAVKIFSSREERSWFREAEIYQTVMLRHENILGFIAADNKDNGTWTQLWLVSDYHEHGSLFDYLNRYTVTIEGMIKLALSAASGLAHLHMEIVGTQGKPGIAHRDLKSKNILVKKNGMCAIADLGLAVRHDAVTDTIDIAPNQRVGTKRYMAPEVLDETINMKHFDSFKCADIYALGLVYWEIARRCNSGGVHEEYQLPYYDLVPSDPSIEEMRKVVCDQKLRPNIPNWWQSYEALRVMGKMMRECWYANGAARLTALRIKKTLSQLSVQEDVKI
# How it was run: as §1
# cKit(D816H)(h) = biological target: T4, cKit(D816H)(h) (Homo sapiens, UniProt P10721, D816H)
# T4 construct: gene KIT
# How it was run: as §1
# cKit(D816V)(h) = biological target: T5, cKit(D816V)(h) (Homo sapiens, UniProt P10721, D816V)
# T5 construct: gene KIT
# How it was run: as §1
# [1] = biological target: T6, PI3 Kinase (p110a(E542K)/p85a)(m) (Mus musculus, UniProt P42337, E542K)
# T6 construct: gene Pik3ca
# How it was run: as §1
# [2] = read-out: Residual activity (%) Spautin-1 5aa
# [3] = read-out: Residual activity (%) 5as
# [4] = read-out: Residual activity (%) 5at
# [5] = read-out: Residual activity (%) 5ay
# Chain of HIPK1(h) (Q86Z02 whole entry): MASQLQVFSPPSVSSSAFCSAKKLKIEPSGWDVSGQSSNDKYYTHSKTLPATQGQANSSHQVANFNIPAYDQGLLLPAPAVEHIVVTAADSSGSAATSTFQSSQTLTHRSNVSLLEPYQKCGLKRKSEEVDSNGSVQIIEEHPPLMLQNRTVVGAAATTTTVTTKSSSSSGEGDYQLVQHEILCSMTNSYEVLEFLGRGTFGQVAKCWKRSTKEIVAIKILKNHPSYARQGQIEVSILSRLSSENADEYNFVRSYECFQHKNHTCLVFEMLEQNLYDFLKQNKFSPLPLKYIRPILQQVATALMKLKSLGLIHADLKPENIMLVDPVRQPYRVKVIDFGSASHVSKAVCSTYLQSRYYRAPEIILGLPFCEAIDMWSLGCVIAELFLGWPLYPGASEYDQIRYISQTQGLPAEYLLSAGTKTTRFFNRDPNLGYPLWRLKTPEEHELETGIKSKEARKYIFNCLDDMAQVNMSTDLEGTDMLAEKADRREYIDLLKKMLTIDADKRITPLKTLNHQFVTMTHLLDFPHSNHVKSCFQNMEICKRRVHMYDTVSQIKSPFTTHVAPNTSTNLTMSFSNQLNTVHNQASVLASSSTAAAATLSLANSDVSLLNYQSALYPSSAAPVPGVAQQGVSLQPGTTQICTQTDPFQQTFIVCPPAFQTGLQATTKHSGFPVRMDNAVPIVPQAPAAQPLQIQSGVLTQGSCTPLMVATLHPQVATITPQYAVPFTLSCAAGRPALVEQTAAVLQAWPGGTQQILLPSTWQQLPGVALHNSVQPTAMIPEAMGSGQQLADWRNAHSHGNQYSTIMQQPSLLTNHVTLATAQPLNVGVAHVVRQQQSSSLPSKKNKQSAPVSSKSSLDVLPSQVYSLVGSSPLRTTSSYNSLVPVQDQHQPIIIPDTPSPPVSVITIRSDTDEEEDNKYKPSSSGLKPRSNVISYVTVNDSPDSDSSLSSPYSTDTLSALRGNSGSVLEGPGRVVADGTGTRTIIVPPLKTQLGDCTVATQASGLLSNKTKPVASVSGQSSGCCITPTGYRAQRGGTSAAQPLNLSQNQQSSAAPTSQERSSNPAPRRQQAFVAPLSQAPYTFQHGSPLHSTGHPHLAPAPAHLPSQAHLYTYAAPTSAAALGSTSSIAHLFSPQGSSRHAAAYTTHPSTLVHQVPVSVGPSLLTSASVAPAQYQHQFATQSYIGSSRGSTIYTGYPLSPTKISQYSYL
# Chain of STK25(h) (O00506 whole entry): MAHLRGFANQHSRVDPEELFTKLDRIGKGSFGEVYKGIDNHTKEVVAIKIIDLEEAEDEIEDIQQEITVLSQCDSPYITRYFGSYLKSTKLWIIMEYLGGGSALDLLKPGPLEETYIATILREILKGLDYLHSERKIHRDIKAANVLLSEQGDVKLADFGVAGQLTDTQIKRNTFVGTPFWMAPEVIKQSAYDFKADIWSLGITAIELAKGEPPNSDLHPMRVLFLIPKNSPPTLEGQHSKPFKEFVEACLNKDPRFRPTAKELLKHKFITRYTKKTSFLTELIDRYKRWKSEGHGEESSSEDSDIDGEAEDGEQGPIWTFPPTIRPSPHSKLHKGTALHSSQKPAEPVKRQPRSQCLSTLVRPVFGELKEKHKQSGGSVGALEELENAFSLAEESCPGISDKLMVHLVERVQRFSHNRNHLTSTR
# T6 sequence (P42337 whole entry E542K): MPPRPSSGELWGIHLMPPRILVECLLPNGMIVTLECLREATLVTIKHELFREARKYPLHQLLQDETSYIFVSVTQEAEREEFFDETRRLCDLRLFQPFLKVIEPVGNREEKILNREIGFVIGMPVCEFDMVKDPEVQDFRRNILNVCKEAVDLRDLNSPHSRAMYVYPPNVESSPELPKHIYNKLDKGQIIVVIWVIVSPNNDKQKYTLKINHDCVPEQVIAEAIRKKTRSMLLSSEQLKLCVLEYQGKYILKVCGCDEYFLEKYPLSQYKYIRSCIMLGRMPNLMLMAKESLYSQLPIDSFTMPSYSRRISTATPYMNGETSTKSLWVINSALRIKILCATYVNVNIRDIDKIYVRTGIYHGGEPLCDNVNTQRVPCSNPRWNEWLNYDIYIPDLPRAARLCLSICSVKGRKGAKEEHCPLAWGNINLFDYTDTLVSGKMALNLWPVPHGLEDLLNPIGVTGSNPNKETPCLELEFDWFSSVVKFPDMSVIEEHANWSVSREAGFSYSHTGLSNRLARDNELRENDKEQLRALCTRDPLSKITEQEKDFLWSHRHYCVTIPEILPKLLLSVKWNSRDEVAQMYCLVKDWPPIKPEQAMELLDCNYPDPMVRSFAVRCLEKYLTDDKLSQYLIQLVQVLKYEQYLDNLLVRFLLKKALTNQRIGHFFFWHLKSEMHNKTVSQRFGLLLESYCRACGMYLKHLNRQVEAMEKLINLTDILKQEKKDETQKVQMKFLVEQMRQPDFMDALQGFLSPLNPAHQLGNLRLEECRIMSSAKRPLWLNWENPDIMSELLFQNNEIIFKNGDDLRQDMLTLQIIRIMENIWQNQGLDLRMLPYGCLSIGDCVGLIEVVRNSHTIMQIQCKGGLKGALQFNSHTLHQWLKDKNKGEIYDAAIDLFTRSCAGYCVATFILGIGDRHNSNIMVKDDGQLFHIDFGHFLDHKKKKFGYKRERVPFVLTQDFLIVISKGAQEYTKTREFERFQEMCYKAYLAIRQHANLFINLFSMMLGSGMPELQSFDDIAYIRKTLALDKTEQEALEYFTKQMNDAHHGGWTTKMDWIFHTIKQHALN
# T6 sequence (P26450 whole entry partner): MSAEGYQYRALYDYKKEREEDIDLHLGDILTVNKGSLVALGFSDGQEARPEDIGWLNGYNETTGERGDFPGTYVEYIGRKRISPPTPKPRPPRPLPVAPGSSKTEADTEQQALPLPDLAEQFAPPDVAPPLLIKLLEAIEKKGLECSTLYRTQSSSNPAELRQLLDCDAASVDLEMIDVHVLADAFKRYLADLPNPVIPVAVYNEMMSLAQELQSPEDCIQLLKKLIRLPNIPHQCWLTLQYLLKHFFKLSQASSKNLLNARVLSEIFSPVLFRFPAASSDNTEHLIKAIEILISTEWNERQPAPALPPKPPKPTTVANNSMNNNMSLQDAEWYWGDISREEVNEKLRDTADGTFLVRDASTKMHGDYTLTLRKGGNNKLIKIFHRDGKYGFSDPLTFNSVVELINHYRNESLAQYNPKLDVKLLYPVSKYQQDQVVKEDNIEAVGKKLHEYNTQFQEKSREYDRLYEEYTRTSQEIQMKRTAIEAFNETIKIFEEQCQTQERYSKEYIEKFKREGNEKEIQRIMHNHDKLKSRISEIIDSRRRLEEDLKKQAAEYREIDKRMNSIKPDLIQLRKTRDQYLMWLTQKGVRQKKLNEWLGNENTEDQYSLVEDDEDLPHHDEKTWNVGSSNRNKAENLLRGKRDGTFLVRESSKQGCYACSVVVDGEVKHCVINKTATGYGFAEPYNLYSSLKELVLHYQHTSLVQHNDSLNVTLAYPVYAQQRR
# T4 sequence (P10721 whole entry D816H): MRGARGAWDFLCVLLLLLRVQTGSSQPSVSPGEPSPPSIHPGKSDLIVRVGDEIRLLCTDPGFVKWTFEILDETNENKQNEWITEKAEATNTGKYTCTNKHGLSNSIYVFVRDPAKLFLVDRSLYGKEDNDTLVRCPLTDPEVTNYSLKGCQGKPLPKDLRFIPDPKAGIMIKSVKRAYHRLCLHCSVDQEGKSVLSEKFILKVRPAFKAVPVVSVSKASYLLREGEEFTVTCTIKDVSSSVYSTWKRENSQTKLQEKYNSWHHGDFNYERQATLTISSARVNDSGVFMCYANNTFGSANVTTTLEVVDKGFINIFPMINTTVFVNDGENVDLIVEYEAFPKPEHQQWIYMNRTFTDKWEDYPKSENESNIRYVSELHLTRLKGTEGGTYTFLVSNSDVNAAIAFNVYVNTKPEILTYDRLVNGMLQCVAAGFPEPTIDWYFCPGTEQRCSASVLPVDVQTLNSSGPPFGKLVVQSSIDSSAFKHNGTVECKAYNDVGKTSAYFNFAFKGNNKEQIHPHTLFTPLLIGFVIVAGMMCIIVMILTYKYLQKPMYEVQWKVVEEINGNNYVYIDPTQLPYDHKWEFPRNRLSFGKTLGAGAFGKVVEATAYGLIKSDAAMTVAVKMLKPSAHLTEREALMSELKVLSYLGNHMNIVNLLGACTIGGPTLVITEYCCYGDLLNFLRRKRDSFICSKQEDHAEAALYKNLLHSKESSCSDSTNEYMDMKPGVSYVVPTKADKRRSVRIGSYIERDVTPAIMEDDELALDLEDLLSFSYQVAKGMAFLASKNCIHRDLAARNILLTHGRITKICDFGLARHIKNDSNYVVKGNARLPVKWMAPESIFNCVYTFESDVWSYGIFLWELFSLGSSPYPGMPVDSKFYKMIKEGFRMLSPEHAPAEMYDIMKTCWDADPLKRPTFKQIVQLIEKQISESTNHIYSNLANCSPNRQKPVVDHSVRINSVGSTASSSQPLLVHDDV
# T5 sequence (P10721 whole entry D816V): as the sequence (P10721 whole entry D816H) above, with H816V counted along it
smiles,measurement,setting,value
"Fc1ccc(CNc2ncnc3ccc(F)cc23)cc1 [5aa, 6-Fluoro-N-(4-fluorobenzyl)-4-Quinazolinamine]",remaining activity at 10 µM,MKK6(h); [2],78%
same,remaining activity at 10 µM,TSSK2(h); [2],101%
same,remaining activity at 10 µM,HIPK1(h); [2],94%
same,remaining activity at 10 µM,STK25(h); [2],114%
same,remaining activity at 10 µM,CDK3/cyclinE(h); [2],93%
same,remaining activity at 10 µM,ALK4(h); [2],121%
same,remaining activity at 10 µM,cKit(D816H)(h); [2],115%
same,remaining activity at 10 µM,cKit(D816V)(h); [2],105%
same,remaining activity at 10 µM,[1]; [2],96%
"Fc1ccc(CCNc2ncnc3ccc(F)cc23)cc1 [5as, 6-Fluoro-N-[2-(4-Fluorophenyl)Ethyl]-4-Quinazolinamine]",remaining activity at 10 µM,MKK6(h); [3],84%
same,remaining activity at 10 µM,TSSK2(h); [3],97%
same,remaining activity at 10 µM,HIPK1(h); [3],120%
same,remaining activity at 10 µM,STK25(h); [3],112%
same,remaining activity at 10 µM,CDK3/cyclinE(h); [3],105%
same,remaining activity at 10 µM,ALK4(h); [3],84%
same,remaining activity at 10 µM,cKit(D816H)(h); [3],95%
same,remaining activity at 10 µM,cKit(D816V)(h); [3],111%
same,remaining activity at 10 µM,[1]; [3],91%
"Fc1ccc2ncnc(NCCc3ccc(Cl)cc3)c2c1 [5at, N-[2-(4-Chlorophenyl)Ethyl]-6-Fluoro-4-Quinazolinamine]",remaining activity at 10 µM,MKK6(h); [4],95%
same,remaining activity at 10 µM,TSSK2(h); [4],103%
same,remaining activity at 10 µM,HIPK1(h); [4],103%
same,remaining activity at 10 µM,STK25(h); [4],111%
same,remaining activity at 10 µM,CDK3/cyclinE(h); [4],107%
same,remaining activity at 10 µM,ALK4(h); [4],61%
same,remaining activity at 10 µM,cKit(D816H)(h); [4],95%
same,remaining activity at 10 µM,cKit(D816V)(h); [4],98%
same,remaining activity at 10 µM,[1]; [4],94%
"COc1ccc2ncnc(Nc3cccc(F)c3)c2c1 [5ay, N-(3-Fluorophenyl)-6-Methoxy-4-Quinazolinamine]",remaining activity at 10 µM,MKK6(h); [5],74%
same,remaining activity at 10 µM,TSSK2(h); [5],103%
same,remaining activity at 10 µM,HIPK1(h); [5],78%
same,remaining activity at 10 µM,STK25(h); [5],114%
same,remaining activity at 10 µM,CDK3/cyclinE(h); [5],101%
same,remaining activity at 10 µM,ALK4(h); [5],73%
same,remaining activity at 10 µM,cKit(D816H)(h); [5],89%
same,remaining activity at 10 µM,cKit(D816V)(h); [5],125%
same,remaining activity at 10 µM,[1]; [5],93%
